Data reported in US11053204B2, “Pyrimidinyloxy benzene derivatives as herbicides” (FMC Corporation, priority 2015, dated 2021).

Experiments:
Assay type in all cases: in vivo
[1] = system: Italian ryegrass (Lolium multiflorum); assay: Test A preemergence, visual injury rating; conditions: Lolium multiflorum, pre-emergence, 240 h, 0 to 100 scale (0 no effect, 100 complete control), read-out: Ryegrass, Italian plant response rating
In short: (§1)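 Greenhouse pot test, loam/sand soil. Formulation: non-phytotoxic solvent mix plus surfactant. Pre: directed spray onto soil after sowing. Post: plants at 1–2 leaf, 2–10 cm. Rated visually vs untreated controls at ~10 d, 0 (no effect) to 100 (complete control).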

[2] = system: barnyardgrass (Echinochloa crus-galli); assay: Test A preemergence, visual injury rating; conditions: Echinochloa crus-galli, pre-emergence, 240 h, 0 to 100 scale (0 no effect, 100 complete control), read-out: Barnyardgrass plant response rating
In short: as §1

[3] = system: giant foxtail (Setaria faberii); assay: Test A preemergence, visual injury rating; conditions: Setaria faberi, pre-emergence, 240 h, 0 to 100 scale (0 no effect, 100 complete control), read-out: Foxtail, Giant plant response rating
In short: as §1

kochia (Kochia scoparia) [4] = assay: Test A preemergence, visual injury rating; conditions: Bassia scoparia, pre-emergence, 240 h, 0 to 100 scale (0 no effect, 100 complete control), read-out: Kochia plant response rating
In short: as §1

[5] = system: pigweed (Amaranthus retroflexus); assay: Test A preemergence, visual injury rating; conditions: Amaranthus retroflexus, pre-emergence, 240 h, 0 to 100 scale (0 no effect, 100 complete control), read-out: Pigweed plant response rating
In short: as §1

[6] = system: ragweed (common ragweed, Ambrosia elatior); assay: Test A preemergence, visual injury rating; conditions: Ambrosia artemisiifolia, pre-emergence, 240 h, 0 to 100 scale (0 no effect, 100 complete control), read-out: Ragweed plant response rating
In short: as §1

[7] = system: Italian ryegrass (Lolium multiflorum); assay: Test A postemergence, visual injury rating; conditions: Lolium multiflorum, post-emergence, 240 h, 0 is no effect, 100 is complete control, read-out: Ryegrass, Italian plant response rating (0 to 100 scale)
In short: as §1

[8] = system: barnyardgrass (Echinochloa crus-galli); assay: Test A postemergence, visual injury rating; conditions: Echinochloa crus-galli, post-emergence, 240 h, 0 is no effect, 100 is complete control, read-out: Barnyardgrass plant response rating (0 to 100 scale)
In short: as §1

[9] = system: blackgrass (Alopecurus myosuroides); assay: Test A postemergence, visual injury rating; conditions: Alopecurus myosuroides, post-emergence, 240 h, 0 is no effect, 100 is complete control, read-out: Blackgrass plant response rating (0 to 100 scale)
In short: as §1

corn (Zea mays) = assay: Test A postemergence, visual injury rating; conditions: Zea mays, post-emergence, 240 h, 0 is no effect, 100 is complete control, read-out: Corn plant response rating (0 to 100 scale)
In short: as §1

[10] = system: galium (catchweed bedstraw, Galium aparine); assay: Test A postemergence, visual injury rating; conditions: Galium, post-emergence, 240 h, 0 is no effect, 100 is complete control, read-out: Galium plant response rating (0 to 100 scale)
In short: as §1

[11] = system: giant foxtail (Setaria faberii); assay: Test A postemergence, visual injury rating; conditions: Setaria faberi, post-emergence, 240 h, 0 is no effect, 100 is complete control, read-out: Foxtail, Giant plant response rating (0 to 100 scale)
In short: as §1

kochia (Kochia scoparia) [12] = assay: Test A postemergence, visual injury rating; conditions: Bassia scoparia, post-emergence, 240 h, 0 is no effect, 100 is complete control, read-out: Kochia plant response rating (0 to 100 scale)
In short: as §1

[13] = system: pigweed (Amaranthus retroflexus); assay: Test A postemergence, visual injury rating; conditions: Amaranthus retroflexus, post-emergence, 240 h, 0 is no effect, 100 is complete control, read-out: Pigweed plant response rating (0 to 100 scale)
In short: as §1

[14] = system: ragweed (common ragweed, Ambrosia elatior); assay: Test A postemergence, visual injury rating; conditions: Ambrosia artemisiifolia, post-emergence, 240 h, 0 is no effect, 100 is complete control, read-out: Ragweed plant response rating (0 to 100 scale)
In short: as §1

[15] = system: wheat (Triticum aestivum); assay: Test A postemergence, visual injury rating; conditions: Triticum aestivum, post-emergence, 240 h, 0 is no effect, 100 is complete control, read-out: Wheat plant response rating (0 to 100 scale)
In short: as §1

[16] = system: barnyardgrass (Echinochloa crus-galli); assay: Test B flooded paddy test, plant response rating; conditions: Echinochloa crus-galli, 312 h; 250 g ai/ha; Flood; scale of 0 to 100 where 0 is no effect and 100 is complete control; 13 to 15 days
In short: (§2)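 Test compounds are applied straight into paddy water held 3 cm above the soil surface, with that flood maintained for the whole test. After 13 to 15 days in the greenhouse, each species is scored visually relative to controls.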

[17] = system: ducksalad (Heteranthera limosa); assay: Test B flooded paddy test, plant response rating; conditions: Heteranthera limosa, 312 h; 250 g ai/ha; Flood; scale of 0 to 100 where 0 is no effect and 100 is complete control; 13 to 15 days
In short: as §2

rice (Oryza sativa) = assay: Test B flooded paddy test, plant response rating; conditions: Oryza sativa, 312 h; 250 g ai/ha; Flood; scale of 0 to 100 where 0 is no effect and 100 is complete control; 13 to 15 days
In short: as §2

[18] = system: sedge, umbrella (small-flower umbrella sedge, Cyperus difformis); assay: Test B flooded paddy test, plant response rating; conditions: Cyperus difformis, 312 h; 250 g ai/ha; Flood; scale of 0 to 100 where 0 is no effect and 100 is complete control; 13 to 15 days
In short: as §2

[19] = system: ragweed (common ragweed, Ambrosia elatior); assay: Test C preemergence, plant response rating; conditions: Ambrosia artemisiifolia, pre-emergence, Preemergence
In short: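 Preemergence: seeds sown in loam–sand blend or silt loam and sprayed with test chemicals in a non-phytotoxic surfactant-containing solvent. Postemergence: potted plants at 2–18 cm (1–4-leaf stage) sprayed with the same formulation. After 13–15 d in greenhouse, visual rating versus controls on 0 (no effect) to 100 (complete control) scale.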

O=C(OCCC(F)(F)F)c1c(Br)cccc1Oc1ncc(Cl)cn1 [Compound 26, 3,3,3-trifluoropropyl 2-bromo-6-[(5-chloro-2-pyrimidinyl)oxy]benzoate]
pest or weed control at 125 g/ha ([1]; 125 g ai/ha): 70%
pest or weed control at 500 g/ha ([1]; 500 g ai/ha): 100%
pest or weed control at 125 g/ha ([2]; 125 g ai/ha): 100%
pest or weed control at 500 g/ha ([2]; 500 g ai/ha): 100%
pest or weed control at 125 g/ha ([3]; 125 g ai/ha): 100%
pest or weed control at 500 g/ha ([3]; 500 g ai/ha): 100%
pest or weed control at 125 g/ha (kochia (Kochia scoparia) [4]; 125 g ai/ha): 100%
pest or weed control at 500 g/ha (kochia (Kochia scoparia) [4]; 500 g ai/ha): 100%
pest or weed control at 125 g/ha ([5]; 125 g ai/ha): 100%
pest or weed control at 500 g/ha ([5]; 500 g ai/ha): 100%
pest or weed control at 125 g/ha ([6]; 125 g ai/ha): 20%
pest or weed control at 500 g/ha ([6]; 500 g ai/ha): 20%
pest or weed control at 125 g/ha ([7]; 125 g ai/ha): 70%
pest or weed control at 500 g/ha ([7]; 500 g ai/ha): 80%
pest or weed control at 125 g/ha ([8]; 125 g ai/ha): 100%
pest or weed control at 500 g/ha ([8]; 500 g ai/ha): 100%
pest or weed control at 125 g/ha ([9]; 125 g ai/ha): 100%
pest or weed control at 500 g/ha ([9]; 500 g ai/ha): 100%
plant injury at 125 g/ha (corn (Zea mays); 125 g ai/ha): 60%
plant injury at 500 g/ha (corn (Zea mays); 500 g ai/ha): 100%
pest or weed control at 125 g/ha ([10]; 125 g ai/ha): 100%
pest or weed control at 500 g/ha ([10]; 500 g ai/ha): 100%
pest or weed control at 125 g/ha ([11]; 125 g ai/ha): 100%
pest or weed control at 500 g/ha ([11]; 500 g ai/ha): 100%
pest or weed control at 125 g/ha (kochia (Kochia scoparia) [12]; 125 g ai/ha): 100%
pest or weed control at 500 g/ha (kochia (Kochia scoparia) [12]; 500 g ai/ha): 100%
pest or weed control at 125 g/ha ([13]; 125 g ai/ha): 100%
pest or weed control at 500 g/ha ([13]; 500 g ai/ha): 100%
pest or weed control at 125 g/ha ([14]; 125 g ai/ha): 30%
pest or weed control at 500 g/ha ([14]; 500 g ai/ha): 60%
plant injury at 125 g/ha ([15]; 125 g ai/ha): 40%
plant injury at 500 g/ha ([15]; 500 g ai/ha): 90%
pest or weed control at 250 g/ha [16]: 60%
pest or weed control at 250 g/ha [17]: 100%
plant injury at 250 g/ha (rice (Oryza sativa)): 20%
pest or weed control at 250 g/ha [18]: 100%
pest or weed control at 125 g/ha ([19]; 125 g ai/ha, scale of 0 to 100): 50%
pest or weed control at 16 g/ha ([19]; 16 g ai/ha, scale 0 to 100): 20%
pest or weed control at 31 g/ha ([19]; 31 g ai/ha, scale 0 to 100): 30%
pest or weed control at 62 g/ha ([19]; 62 g ai/ha, scale 0 to 100): 60%
